From ChEMBL document CHEMBL1153717

What was measured:
[1] = target: T1, Low molecular weight protein-tyrosine phosphatase A (Mycobacterium tuberculosis, UniProt P9WIA1); assay: Inhibition of Mycobacterium tuberculosis PtpA
T1 sequence (P9WIA1 whole entry): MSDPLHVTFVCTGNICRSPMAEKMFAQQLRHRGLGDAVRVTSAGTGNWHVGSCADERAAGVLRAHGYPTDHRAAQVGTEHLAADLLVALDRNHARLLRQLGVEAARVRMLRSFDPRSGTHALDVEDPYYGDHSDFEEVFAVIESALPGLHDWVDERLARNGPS

[2] = target: Dual specificity protein phosphatase 3 (Homo sapiens, UniProt P51452); assay: Inhibition of human VHR
Chain of Dual specificity protein phosphatase 3 (P51452 whole entry): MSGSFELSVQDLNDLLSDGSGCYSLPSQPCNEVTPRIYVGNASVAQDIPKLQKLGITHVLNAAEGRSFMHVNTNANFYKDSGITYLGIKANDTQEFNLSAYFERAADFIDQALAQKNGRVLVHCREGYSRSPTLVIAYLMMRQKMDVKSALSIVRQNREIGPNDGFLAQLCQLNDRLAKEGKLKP

[3] = target: Receptor-type tyrosine-protein phosphatase F (Homo sapiens, UniProt P10586); assay: Inhibition of human LAR
Chain of Receptor-type tyrosine-protein phosphatase F (P10586 whole entry): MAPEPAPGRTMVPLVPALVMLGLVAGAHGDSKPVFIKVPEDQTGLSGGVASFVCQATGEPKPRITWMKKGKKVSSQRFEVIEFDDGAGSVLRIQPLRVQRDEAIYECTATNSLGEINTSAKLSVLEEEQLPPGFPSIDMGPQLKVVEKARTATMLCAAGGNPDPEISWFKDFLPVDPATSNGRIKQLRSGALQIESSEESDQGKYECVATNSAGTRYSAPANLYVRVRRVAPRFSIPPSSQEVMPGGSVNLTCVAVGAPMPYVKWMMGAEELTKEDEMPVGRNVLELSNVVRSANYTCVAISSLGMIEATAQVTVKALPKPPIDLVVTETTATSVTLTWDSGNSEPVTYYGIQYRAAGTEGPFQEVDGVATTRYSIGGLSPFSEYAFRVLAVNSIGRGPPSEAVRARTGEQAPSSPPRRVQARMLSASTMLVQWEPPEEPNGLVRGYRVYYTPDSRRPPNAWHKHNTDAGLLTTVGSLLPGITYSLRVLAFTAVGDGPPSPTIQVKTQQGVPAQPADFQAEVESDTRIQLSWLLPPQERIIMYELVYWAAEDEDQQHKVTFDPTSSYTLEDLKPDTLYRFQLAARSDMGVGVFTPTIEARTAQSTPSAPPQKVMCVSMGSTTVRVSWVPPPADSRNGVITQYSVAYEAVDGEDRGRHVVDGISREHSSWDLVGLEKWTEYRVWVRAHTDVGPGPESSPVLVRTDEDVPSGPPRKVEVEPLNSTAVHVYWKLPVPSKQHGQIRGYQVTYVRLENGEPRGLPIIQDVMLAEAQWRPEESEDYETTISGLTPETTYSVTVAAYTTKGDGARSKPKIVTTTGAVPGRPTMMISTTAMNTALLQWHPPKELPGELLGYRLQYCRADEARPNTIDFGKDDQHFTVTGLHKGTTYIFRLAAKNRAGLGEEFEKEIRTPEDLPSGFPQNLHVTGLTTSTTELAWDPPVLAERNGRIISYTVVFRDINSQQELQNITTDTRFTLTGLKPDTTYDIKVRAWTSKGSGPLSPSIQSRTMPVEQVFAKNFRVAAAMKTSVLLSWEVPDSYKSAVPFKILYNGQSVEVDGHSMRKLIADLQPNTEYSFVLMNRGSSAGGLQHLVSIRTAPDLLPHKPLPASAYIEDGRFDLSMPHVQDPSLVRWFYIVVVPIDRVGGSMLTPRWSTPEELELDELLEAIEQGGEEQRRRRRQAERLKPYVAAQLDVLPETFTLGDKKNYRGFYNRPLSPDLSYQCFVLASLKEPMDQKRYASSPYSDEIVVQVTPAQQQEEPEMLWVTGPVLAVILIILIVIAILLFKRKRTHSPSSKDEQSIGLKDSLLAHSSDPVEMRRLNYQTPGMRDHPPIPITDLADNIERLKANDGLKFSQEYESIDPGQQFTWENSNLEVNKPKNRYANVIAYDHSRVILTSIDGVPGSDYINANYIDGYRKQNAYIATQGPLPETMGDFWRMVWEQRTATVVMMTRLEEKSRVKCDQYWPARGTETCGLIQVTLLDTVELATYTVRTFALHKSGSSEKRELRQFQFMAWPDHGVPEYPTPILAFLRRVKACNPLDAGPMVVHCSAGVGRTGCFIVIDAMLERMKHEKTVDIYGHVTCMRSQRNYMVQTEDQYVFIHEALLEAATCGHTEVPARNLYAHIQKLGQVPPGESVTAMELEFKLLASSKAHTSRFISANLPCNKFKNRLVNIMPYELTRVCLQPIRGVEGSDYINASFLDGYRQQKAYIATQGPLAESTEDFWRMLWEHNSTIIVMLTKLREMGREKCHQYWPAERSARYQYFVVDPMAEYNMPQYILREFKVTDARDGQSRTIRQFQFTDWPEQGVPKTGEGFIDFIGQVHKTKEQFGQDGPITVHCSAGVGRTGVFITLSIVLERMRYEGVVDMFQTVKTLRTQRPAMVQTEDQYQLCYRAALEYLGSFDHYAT

[4] = target: T2, Low molecular weight phosphotyrosine protein phosphatase (Homo sapiens, UniProt P24666); assay: Inhibition of human HCPTPA
T2 sequence (P24666 whole entry): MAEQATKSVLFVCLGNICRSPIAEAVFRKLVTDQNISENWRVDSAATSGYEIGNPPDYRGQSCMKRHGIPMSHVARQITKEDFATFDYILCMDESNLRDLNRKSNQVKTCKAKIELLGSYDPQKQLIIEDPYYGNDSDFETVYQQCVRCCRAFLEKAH

[5] = target: T3, Receptor-type tyrosine-protein phosphatase C (Homo sapiens, UniProt P08575); assay: Inhibition of human CD45
T3 sequence (P08575 whole entry): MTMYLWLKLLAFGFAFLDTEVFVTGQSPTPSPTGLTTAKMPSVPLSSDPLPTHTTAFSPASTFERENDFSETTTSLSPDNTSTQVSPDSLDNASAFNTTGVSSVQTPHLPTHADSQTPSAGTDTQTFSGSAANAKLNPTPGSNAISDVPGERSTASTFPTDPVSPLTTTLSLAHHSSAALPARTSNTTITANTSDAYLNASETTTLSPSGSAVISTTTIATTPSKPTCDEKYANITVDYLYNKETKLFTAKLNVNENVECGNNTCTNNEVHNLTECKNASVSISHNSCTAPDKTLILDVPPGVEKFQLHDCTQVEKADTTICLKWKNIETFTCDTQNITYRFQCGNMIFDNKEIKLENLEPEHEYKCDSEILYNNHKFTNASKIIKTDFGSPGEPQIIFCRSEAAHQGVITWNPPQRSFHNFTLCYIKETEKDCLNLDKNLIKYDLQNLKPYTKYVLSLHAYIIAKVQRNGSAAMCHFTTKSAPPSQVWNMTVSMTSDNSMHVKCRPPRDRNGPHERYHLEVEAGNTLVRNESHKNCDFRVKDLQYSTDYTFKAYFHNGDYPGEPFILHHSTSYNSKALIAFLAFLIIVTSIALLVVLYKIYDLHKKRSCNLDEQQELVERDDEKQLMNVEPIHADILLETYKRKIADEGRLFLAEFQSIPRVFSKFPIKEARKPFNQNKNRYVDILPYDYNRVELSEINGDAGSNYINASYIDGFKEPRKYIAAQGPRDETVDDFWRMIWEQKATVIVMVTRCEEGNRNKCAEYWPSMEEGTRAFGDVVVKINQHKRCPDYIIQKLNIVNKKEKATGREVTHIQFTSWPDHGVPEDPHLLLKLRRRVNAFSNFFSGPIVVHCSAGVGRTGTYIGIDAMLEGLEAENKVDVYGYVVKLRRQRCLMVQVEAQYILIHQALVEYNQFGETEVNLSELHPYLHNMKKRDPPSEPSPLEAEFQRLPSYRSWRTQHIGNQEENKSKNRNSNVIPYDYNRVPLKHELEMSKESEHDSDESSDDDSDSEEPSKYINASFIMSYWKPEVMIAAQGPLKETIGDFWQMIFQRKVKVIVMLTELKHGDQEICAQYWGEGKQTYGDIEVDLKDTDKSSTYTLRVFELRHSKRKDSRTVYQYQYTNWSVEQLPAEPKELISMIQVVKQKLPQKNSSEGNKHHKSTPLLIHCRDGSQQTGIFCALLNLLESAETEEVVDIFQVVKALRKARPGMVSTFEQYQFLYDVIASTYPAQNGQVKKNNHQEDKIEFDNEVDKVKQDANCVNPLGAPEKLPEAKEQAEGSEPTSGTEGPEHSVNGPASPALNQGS

[6] = target: T4, Tyrosine-protein phosphatase non-receptor type 1 (Homo sapiens, UniProt P18031); assay: Inhibition of human PTP1B
T4 sequence (P18031 whole entry): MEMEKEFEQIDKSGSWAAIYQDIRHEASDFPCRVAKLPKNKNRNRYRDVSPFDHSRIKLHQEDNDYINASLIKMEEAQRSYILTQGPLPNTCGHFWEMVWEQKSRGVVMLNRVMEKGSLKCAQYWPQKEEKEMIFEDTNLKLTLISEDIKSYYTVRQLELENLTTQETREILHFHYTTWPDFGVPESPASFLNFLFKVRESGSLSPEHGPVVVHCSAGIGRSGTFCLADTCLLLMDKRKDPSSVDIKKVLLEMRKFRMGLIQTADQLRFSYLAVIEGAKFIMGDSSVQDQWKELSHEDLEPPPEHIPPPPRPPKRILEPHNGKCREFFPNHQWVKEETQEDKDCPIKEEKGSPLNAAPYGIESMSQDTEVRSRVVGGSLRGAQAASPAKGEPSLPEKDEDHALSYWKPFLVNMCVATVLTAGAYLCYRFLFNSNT

[7] = target: T5, Tyrosine-protein phosphatase non-receptor type 2 (Homo sapiens, UniProt P17706); assay: Inhibition of human TCPTP
T5 sequence (P17706 whole entry): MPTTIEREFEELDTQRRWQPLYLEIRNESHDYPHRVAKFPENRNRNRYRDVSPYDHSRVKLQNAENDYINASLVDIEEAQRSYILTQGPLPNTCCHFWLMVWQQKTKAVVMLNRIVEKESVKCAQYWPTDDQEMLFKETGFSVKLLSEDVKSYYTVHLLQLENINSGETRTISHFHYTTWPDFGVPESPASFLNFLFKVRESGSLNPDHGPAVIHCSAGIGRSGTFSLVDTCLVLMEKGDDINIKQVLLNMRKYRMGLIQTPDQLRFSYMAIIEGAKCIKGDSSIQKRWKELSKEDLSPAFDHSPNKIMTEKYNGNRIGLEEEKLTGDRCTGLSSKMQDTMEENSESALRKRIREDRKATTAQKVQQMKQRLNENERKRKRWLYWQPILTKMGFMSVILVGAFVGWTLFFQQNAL

## O=P(O)(O)C(F)(F)c1ccc(Br)cc1
[1]; read-out: Ki
  Ki: 92.3 µM

## CC(C)NC(=O)c1ccc(C(F)(F)P(=O)(O)O)cc1
[1]; read-out: Ki
  Ki: > 100 µM

## O=C(Nc1ccccc1C(F)(F)F)c1ccc(C(F)(F)P(=O)(O)O)cc1
[1]; read-out: Ki
  Ki: 54.8 µM

## O=C(Nc1ccc(F)cc1)c1ccc(C(F)(F)P(=O)(O)O)cc1
[1]; read-out: Ki
  Ki: 22.7 µM

## CN(C(=O)c1ccc(C(F)(F)P(=O)(O)O)cc1)c1ccccc1
[1]; read-out: Ki
  Ki: > 100 µM

## O=P(O)(O)C(F)(F)c1ccc(CNc2ccccc2)cc1
[1]; read-out: Ki
  Ki: > 100 µM

## O=C(Nc1ccc(Cl)c(C(F)(F)F)c1)c1ccc(C(F)(F)P(=O)(O)O)cc1
[1]; read-out: Ki
  Ki: 6 µM

## O=C(Nc1ccc(Br)c(C(F)(F)F)c1)c1ccc(C(F)(F)P(=O)(O)O)cc1
[1]; read-out: Ki
  Ki: 4.9 µM

## O=C(Nc1ccc(C(F)(F)P(=O)(O)O)cc1)c1ccccc1
[1]; read-out: Ki
  Ki: 65.5 µM

## O=C(Nc1ccccc1)c1cccc(C(F)(F)P(=O)(O)O)c1
[1]; read-out: Ki
  Ki: > 100 µM

## O=P(O)(O)C(F)(F)c1ccc2c(cnn2Cc2ccccc2)c1
[1]; read-out: Ki
  Ki: > 100 µM

## O=P(O)(O)C(F)(F)c1ccc2nn(Cc3ccccc3)cc2c1
[1]; read-out: Ki
  Ki: 84.4 µM

## CCN1CCC(NC(=O)c2ccc(C(F)(F)P(=O)(O)O)cc2)CC1
[1]; read-out: Ki
  Ki: > 100 µM

## O=P(O)(O)C(F)(F)c1ccc(COc2ccccc2)cc1
[1]; read-out: Ki
  Ki: > 100 µM

## CNC(=O)c1ccc(C(F)(F)P(=O)(O)O)cc1
[1]; read-out: Ki
  Ki: > 100 µM

## O=C(NCC1CCCC1)c1ccc(C(F)(F)P(=O)(O)O)cc1
[1]; read-out: Ki
  Ki: > 100 µM

## O=C(NCc1ccccc1)c1ccc(C(F)(F)P(=O)(O)O)cc1
[1]; read-out: Ki
  Ki: 43.1 µM

## O=C(Nc1nccs1)c1ccc(C(F)(F)P(=O)(O)O)cc1
[1]; read-out: Ki
  Ki: 33 µM

## O=C(Nc1ccccc1)c1ccc(C(F)(F)P(=O)(O)O)cc1
[1]; read-out: Ki
  Ki: 24 µM

## O=C(Nc1ccccc1Br)c1ccc(C(F)(F)P(=O)(O)O)cc1
[1]; read-out: Ki
  Ki: 44.6 µM

## O=C(Nc1cccc(F)c1)c1ccc(C(F)(F)P(=O)(O)O)cc1
[1]; read-out: Ki
  Ki: 41.8 µM

## O=C(Nc1cccc(Cl)c1)c1ccc(C(F)(F)P(=O)(O)O)cc1
[1]; read-out: Ki
  Ki: 34.9 µM

## O=C(Nc1cccc(Br)c1)c1ccc(C(F)(F)P(=O)(O)O)cc1
[1]; read-out: Ki
  Ki: 18.2 µM

## O=C(Nc1cccc(C(F)(F)F)c1)c1ccc(C(F)(F)P(=O)(O)O)cc1
[1]; read-out: Ki
  Ki: 10.7 µM

## O=C(Nc1ccc(C(F)(F)F)cc1)c1ccc(C(F)(F)P(=O)(O)O)cc1
[1]; read-out: Ki
  Ki: 18.5 µM

## O=C(Nc1ccc(Cl)cc1)c1ccc(C(F)(F)P(=O)(O)O)cc1
[1]; read-out: Ki
  Ki: 16.8 µM

## O=C(Nc1ccc(Br)cc1)c1ccc(C(F)(F)P(=O)(O)O)cc1
[1]; read-out: Ki
  Ki: 10.3 µM

## O=C(Nc1ccc(F)c(C(F)(F)F)c1)c1ccc(C(F)(F)P(=O)(O)O)cc1
[1]; read-out: Ki
  Ki: 11.4 µM

## O=C(O)c1ccc(C(F)(F)P(=O)(O)O)cc1
[1]; read-out: Ki
  Ki: > 100 µM

## O=C(Cc1ccc(C(F)(F)P(=O)(O)O)cc1)Nc1ccccc1
[1]; read-out: Ki
  Ki: > 100 µM

## O=C(Nc1cc(C(F)(F)F)cc(C(F)(F)F)c1)c1ccc(C(F)(F)P(=O)(O)O)cc1
[1]; read-out: Ki
  Ki: 3.3 µM

## O=C(Nc1cc(C(F)(F)F)c(Br)c(C(F)(F)F)c1)c1ccc(C(F)(F)P(=O)(O)O)cc1
[1]; read-out: Ki
  Ki: 1.4 µM
[2]
  Ki: > 100 µM
[3]
  Ki: > 100 µM
[4]
  Ki: 14.8 µM
[5]
  Ki: > 100 µM
[6]
  Ki: > 100 µM
[7]
  Ki: > 100 µM

## O=[N+]([O-])c1ccc(C(F)(F)P(=O)(O)O)cc1
[1]; read-out: Ki
  Ki: 75.4 µM

## Cn1cc(-c2ccc(C(F)(F)P(=O)(O)O)cc2)cn1
[1]; read-out: Ki
  Ki: > 100 µM

## O=C(NC1CCCC1)c1ccc(C(F)(F)P(=O)(O)O)cc1
[1]; read-out: Ki
  Ki: 72.4 µM

## O=C(NCCc1ccccc1)c1ccc(C(F)(F)P(=O)(O)O)cc1
[1]; read-out: Ki
  Ki: 61.6 µM

## O=C(NCC(F)(F)F)c1ccc(C(F)(F)P(=O)(O)O)cc1
[1]; read-out: Ki
  Ki: 49.7 µM

## O=P(O)(O)C(F)(F)c1ccc(S(=O)(=O)Nc2ccccc2)cc1
[1]; read-out: Ki
  Ki: > 100 µM

## O=C(Nc1ccc(C(F)(F)P(=O)(O)O)cc1)Nc1cc(C(F)(F)F)cc(C(F)(F)F)c1
[1]; read-out: Ki
  Ki: 3.1 µM

## O=C(Nc1nc2ccccc2[nH]1)c1ccc(C(F)(F)P(=O)(O)O)cc1
[1]
  Ki: ND(Insoluble)

## O=C(Nc1ccccc1F)c1ccc(C(F)(F)P(=O)(O)O)cc1
[1]; read-out: Ki
  Ki: > 100 µM

## O=C(Nc1ccccc1Cl)c1ccc(C(F)(F)P(=O)(O)O)cc1
[1]; read-out: Ki
  Ki: 68 µM

## O=P(O)(O)C(F)(F)c1ccc(-c2ccccc2)cc1
[1]; read-out: Ki
  Ki: > 100 µM
